Test results taken from US5399697A, “N,N',N'-trisubstituted-5-bisaminomethylene-1,3-dioxane-4,6-dione inhibitors of acyl-CoA:cholesterol-acyl transferase” (American Home Products Corporation, priority 1993, dated 1995).

Tests used:
[1] = tested on: low density lipoprotein oxidation; test: Antioxidant properties, low density lipoprotein oxidation studies (Parthasarathy et al.); type: biochemical; settings: result in words
Source text: (§1) The use of antioxidants in the treatment of atherosclerosis is also known to be of therapeutic value.

lipoperoxide = test: Antioxidant properties, lipoperoxide study of Yagi; type: biochemical; settings: result in words
Source text: as §1

[2] = tested on: acyl-coenzyme A: cholesterol acyltransferase; test: Inhibition of ACAT / intracellular cholesterol esterification in vitro (procedure of Ross et al.); type: cell-based; settings: for % Inhibition: 25 μM; for IC50: read-out: IC50
plasma cholesterol = test: Plasma cholesterol in cholesterol-cholic acid fed rats; type: in vivo; settings: Rattus norvegicus, 96 h, oral gavage, four days, read-out: % Decrease in Plasma Cholesterol
Method: In addition, representative compounds were studied in vivo in cholesterol-cholic acid fed rats to determine the percent decrease of cholesterol in their plasma. This study involves rats which are, prior to testing, trained for one week to eat over a four hour time period each day. Upon initiation of the experiment, the rats diet is supplemented with 1.0 percent cholesterol and 0.25 percent cholic acid. The rats are dosed with the test compound by oral gavage just prior to adjust following the four hour feeding period. This is repeated for four days. On the fifth day, the rats are sacrificed and the total plasma cholesterol content is determined. The percent decrease in elevated plasma cholesterol levels is calculated in comparison with […].

cholesterol absorption = test: 14C-cholesterol absorption in normal rats (oral gavage); type: in vivo; settings: Rattus norvegicus, normal rats, read-out: % Inhibition of Absorption
Method: Representative compounds were further tested in vivo to establish the percent inhibition of cholesterol absorption. In this study, normal rats were dosed (oral gavage) with ^14 C-cholesterol plus the test compound. Blood samples taken at six hours and/or intermittently up to twenty-four hours were analyzed and the percent inhibition of cholesterol absorption was calculated.

Row | SMILES | antioxidant properties in low density lipoprotein oxidation studies [1] | antioxidant properties in the lipoperoxide study (lipoperoxide) | % Inhibition [2] [%] | IC50 [2] [nM] | change in vivo at 40 mg/kg (plasma cholesterol; 40 mg/kg) [%] | change in vivo at 10 mg/kg (cholesterol absorption; 10 mg/kg) [%] | change in vivo at 100 mg/kg (plasma cholesterol; 100 mg/kg) [%] | change in vivo at 200 mg/kg (cholesterol absorption; 200 mg/kg) [%]
1 | CCCCCC(C)N(Cc1ccc(CC(C)(C)C)cc1)C(Nc1cc(C(C)(C)C)c(O)c(C(C)(C)C)c1)=C1C(=O)OC(C)(C)OC1=O (stereo not shown) [Compound 75] | demonstrated antioxidant properties | demonstrated antioxidant properties | – | – | – | – | – | –
2 | CCCCCCN(Cc1ccc(CC(C)C)cc1)C(Nc1cc(C(C)(C)C)c(O)c(C(C)(C)C)c1)=C1C(=O)OC(C)(C)OC1=O [Compound 77] | demonstrated antioxidant properties | demonstrated antioxidant properties | 95 | – | – | – | – | –
3 | CCCCCCCN(Cc1ccc(CC(C)(C)C)cc1)C(Nc1cc(C(C)(C)C)c(O)c(C(C)(C)C)c1)=C1C(=O)OC(C)(C)OC1=O [Compound 76, 5-[[[3,5-Bis(1,1-dimethylethyl)-4,1-hydrophenyl]amino][[[4-(2,2-dimethylpropyl)phenyl]methyl]heptylamino]methylene]-2,2-dimethyl-1,3-dioxane-4,6-dione] | demonstrated antioxidant properties | demonstrated antioxidant properties | 96 | 60 | – | – | – | –
4 | CCCCCCOc1ccc(NC(=C2C(=O)OC(C)(C)OC2=O)N(Cc2ccc(CC(C)C)cc2)C(C)CCCCC)cc1 (stereo not shown) [Compound 43, 5-[[[4-(Hexyloxy)phenyl]amino][(1-methylhexyl)[[4-(2methylpropyl)phenyl]methyl]amino]-methylene]-2,2-dimethyl-1,3-dioxane-4,6,-dione] | – | – | 97 | 410 | -67 | -52 | – | –
5 | CCCCCCCN(Cc1ccc(C(C)(C)C)cc1)C(Nc1ccc(N(C)C)cc1)=C1C(=O)OC(C)(C)OC1=O [Compound 5, 5-[[[4-(Dimethylamino)phenyl]amino][[[4-(1,1-dimethylethyl)phenyl]methyl]heptylamino]methylene]-2,2-dimethyl-1,3-dioxane-4,6-dione] | – | – | 99 | 1100 | – | – | -35 | -91
6 | CCCCCCN(Cc1ccc(CC(C)(C)C)cc1)C(Nc1cc(C(C)(C)C)c(O)c(C(C)(C)C)c1)=C1C(=O)OC(C)(C)OC1=O [Compound 79, 5-[[[3,5-Bis(1,1-dimethylethyl)-4-hydroxyphenyl]amino][[[4-(2,2-dimethylpropyl)phenyl]methyl]hexylamino]methylene]-2,2-dimethyl-1,3-dioxane-4,6-dione] | demonstrated antioxidant properties | demonstrated antioxidant properties | – | – | – | – | – | –
